What follows are compounds tested against Carbonic anhydrase 4 (Homo sapiens) (UniProt P22748) (assay: Activation constant against recombinant human CA IV isozyme by the esterase method).
Assay type: functional

Chain of Carbonic anhydrase 4 (Homo sapiens) (P22748 whole entry): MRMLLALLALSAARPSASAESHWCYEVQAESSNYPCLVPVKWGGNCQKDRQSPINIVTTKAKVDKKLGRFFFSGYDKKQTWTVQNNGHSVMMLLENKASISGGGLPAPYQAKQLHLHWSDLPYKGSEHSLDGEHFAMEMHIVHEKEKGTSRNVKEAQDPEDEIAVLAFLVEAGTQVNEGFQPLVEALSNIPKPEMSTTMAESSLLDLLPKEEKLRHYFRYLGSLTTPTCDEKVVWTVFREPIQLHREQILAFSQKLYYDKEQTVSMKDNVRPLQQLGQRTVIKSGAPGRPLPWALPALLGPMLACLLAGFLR

KA | Structure (SMILES)
23 µM | COC(=O)[C@@H](N)Cc1c[nH]cn1
33 µM | N[C@@H](Cc1c[nH]cn1)C(=O)O
4.6 µM | N[C@@H](Cc1ccccc1)C(=O)O

More lines, now with the values behind:

Structure (SMILES) | KA
NCCC(=O)N[C@@H](Cc1c[nH]cn1)C(=O)O | 15 µM
NCCc1c[nH]cn1 | 37 µM
